Reference: patent publication US20210292306A1, “NOVEL INDOLE DERIVATIVE AND ANTI-CANCER CONPOSITION CONTAINING SAME” (KOREA RESEARCH INSTITUTE OF BIOSCIENCE AND BIOTECHNOLOGY, priority 2016, published 2021)

Legend:
A431 [1] = assay: Effect on cell cycle progression (propidium iodine, FACS); assay type: cell-based, human; conditions: A431, 17 hours
Description: (§1) Several cancer cell lines were cultured on a 12 well plate (3×10^4 cells/well), and treated with DMSO or WCI-1031, an indole derivative of the present invention, for 17 hours, and then added with a propidium iodine dye to stain the cellular DNA, and subjected to measurement using FACS. The concentrations at which cells gathered in the G2/M phase and numbers of the cells represented as percentages were shown (Table 5).

HeLa [2] = assay: as above; assay type: cell-based, human; conditions: 17 hours
Description: as §1

EL4 = assay: as above; assay type: cell-based; conditions: EL4, 17 hours
Description: as §1

Hep3B [3] = assay: as above; assay type: cell-based; conditions: 17 hours
Description: as §1

MCF7 [4] = assay: as above; assay type: cell-based; conditions: MCF7, 17 hours
Description: as §1

PC3 [5] = assay: as above; assay type: cell-based; conditions: PC3, 17 hours
Description: as §1

NCIH-125 [6] = assay: as above; assay type: cell-based; conditions: NCIH-125, 17 hours
Description: as §1

A172 [7] = assay: as above; assay type: cell-based; conditions: A172, 17 hours
Description: as §1

K562 [8] = assay: as above; assay type: cell-based; conditions: K562, 17 hours
Description: as §1

MCF7 ADR = assay: as above; assay type: cell-based; conditions: 17 hours
Description: as §1

[9] = Maximum absorbable dose in human (Table 6); conditions: for MAD (maximum absorbable dose in human): SIWV 250 ml, SITT 270
Wehi 3 = assay: Anti-proliferative activity in other cancer cell lines (MTT assay); assay type: cell-based; conditions: 96 h, Wehi 3 (bone marrow), 4 days, mean of three assays
Description: (§2) HeLa cells (ATCC, USA), which are a human cervical cancer cell line, were dispensed into a 96-well plate at 2×10^3 cells/well, and the cells were treated with DMSO or the indole derivatives of the present invention, and then allowed to grow for 4 days. And then, MTT (3-(4,5-Dimethylthiazol-2-yl)-2,5-diphenyltetrazolium bromide) reagent was added to the wells at 10 μl/well. After 2 hours, the absorbance was measured at “OD 450” and statistical values were obtained using the plizm6 program. The data represent mean values of the results of two repeated assays (Table 1).
(§3) Specifically, various cancer cell lines were cultured on a microtiter plate (1-3×10^3 cells/well), and the cells were treated with the indole derivative of the present invention and cultured for 4 days. Cytotoxicity was examined by the MTT assay by the same method as in Experimental Example 1-1, and the IC50 was obtained by the log-dose response curve. The data represent mean values of the results of three repeated assays (Table 2).

SNU 484 = assay: as above; assay type: cell-based; conditions: 96 h, SNU 484 (stomach), 4 days, mean of three assays
Description: as §2, §3

NCIH-1299 = assay: as above; assay type: cell-based; conditions: Homo sapiens, NCI-H1299, 96 h, NCIH-1299 (lung), 4 days, mean of three assays
Description: as §2, §3

A 549 = assay: as above; assay type: cell-based; conditions: Homo sapiens, A549, 96 h, A 549 (lung), 4 days, mean of three assays
Description: as §2, §3

Hep3B [10] = assay: as above; assay type: cell-based; conditions: Homo sapiens, 96 h, Hep3B (liver), 4 days, mean of three assays
Description: as §2, §3

MCF7 [11] = assay: as above; assay type: cell-based; conditions: Homo sapiens, 96 h, MCF7 (breast), 4 days, mean of three assays
Description: as §2, §3

U373MG = assay: as above; assay type: cell-based; conditions: Homo sapiens, U373 MG, 96 h, U373MG (brain), 4 days, mean of three assays
Description: as §2, §3

A431 [12] = assay: as above; assay type: cell-based; conditions: Homo sapiens, A-431, 96 h, A431 (skin), 4 days, mean of three assays
Description: as §2, §3

HepG2 = assay: as above; assay type: cell-based; conditions: Homo sapiens, 96 h, HepG2 (liver), 4 days, mean of three assays
Description: as §2, §3

PC3 [13] = assay: as above; assay type: cell-based; conditions: Homo sapiens, PC-3, 96 h, PC3 (prostate), 4 days, mean of three assays
Description: as §2, §3

NCIH-460 = assay: as above; assay type: cell-based; conditions: Homo sapiens, NCI-H460, 96 h, NCIH-460 (lung), 4 days, mean of three assays
Description: as §2, §3

NCIH-125 [14] = assay: as above; assay type: cell-based; conditions: Homo sapiens, NCI-H125, 96 h, NCIH-125 (lung), 4 days, mean of three assays
Description: as §2, §3

HeLa [15] = assay: as above; assay type: cell-based; conditions: Homo sapiens, 96 h, HeLa (uterine cervix), 4 days, mean of three assays
Description: as §2, §3

A172 [16] = assay: as above; assay type: cell-based; conditions: Homo sapiens, A 172, 96 h, A172 (brain), 4 days, mean of three assays
Description: as §2, §3

K562 [17] = assay: as above; assay type: cell-based; conditions: Homo sapiens, 96 h, K562 (bone marrow), 4 days, mean of three assays
Description: as §2, §3

[18] = Stability in blood plasma after intravenous injection; assay type: in vivo; conditions: plasma concentration over time (FIG. 7)
Description: In order to examine the stability of the indole derivative of the present invention in vivo, the compound of Example 1 (WCI-1031) was injected intravenously and the plasma concentration was observed over time (FIG. 7).

[19] = tested on: Several cancer cell lines; assay: Effect on cell cycle progression, summary over the cell lines of Table 5; assay type: cell-based; conditions: summary over the cell lines of Table 5, 17 hours
Description: as §1

Ka (intestinal absorption rate constant) ([9]; pH 6.5): 0.03 min⁻¹ | MAD (maximum absorbable dose in human) ([9]; pH 6.5): 1.8 mg | Ka (intestinal absorption rate constant) ([9]; pH 7.4): 0.03 min⁻¹ | MAD (maximum absorbable dose in human) ([9]; pH 7.4): 0.8 mg | IC50 (Wehi 3): 0.29 µM | IC50 (SNU 484): 0.493 µM | IC50 (NCIH-1299): 0.376 µM | IC50 (A 549): 0.495 µM | IC50 (Hep3B [10]): 0.503 µM | IC50 (MCF7 [11]): 1.32 µM | IC50 (U373MG): 0.262 µM | IC50 (A431 [12]): 0.186 µM | IC50 (HepG2): 2.4 µM | IC50 (PC3 [13]): 0.549 µM | IC50 (NCIH-460): 0.671 µM | IC50 (NCIH-125 [14]): 0.333 µM | IC50 (HeLa [15]): 0.297 µM | IC50 (A172 [16]): 1.12 µM | IC50 (K562 [17]): 0.549 µM | stability in the blood plasma [18]: excellent
SMILES: COC(=O)Cn1c(C)c(/C=N/NC(=O)c2cc3c(ccc4ccccc43)o2)c2ccccc21 [WCI-1031, methyl (E)-2-(2-methyl-3-((2-(naphtho[2,1-b]furan-2-carbonyl) hydrazono)methyl)-1H-indole-1-yl)acetate]
effect μM (concentration at which cells gathered in the G2/M phase) (A431 [1]): 0.5 µM | % of G2/M (A431 [1]; at the effect concentration): 66.32% | effect μM (concentration at which cells gathered in the G2/M phase) (HeLa [2]): 0.5 µM | % of G2/M (HeLa [2]; at the effect concentration): 82.36% | effect μM (concentration at which cells gathered in the G2/M phase) (EL4): 0.5 µM | % of G2/M (EL4; at the effect concentration): 50.84% | effect μM (concentration at which cells gathered in the G2/M phase) (Hep3B [3]): 0.5 µM | % of G2/M (Hep3B [3]; at the effect concentration): 68.13% | effect μM (concentration at which cells gathered in the G2/M phase) (MCF7 [4]): 0.5 µM | % of G2/M (MCF7 [4]; at the effect concentration): 59.08% | effect μM (concentration at which cells gathered in the G2/M phase) (PC3 [5]): 0.5 µM | % of G2/M (PC3 [5]; at the effect concentration): 65.35% | effect μM (concentration at which cells gathered in the G2/M phase) (NCIH-125 [6]): 1.0 µM | % of G2/M (NCIH-125 [6]; at the effect concentration): 48.10% | effect μM (concentration at which cells gathered in the G2/M phase) (A172 [7]): 1.0 µM | % of G2/M (A172 [7]; at the effect concentration): 70.10% | effect μM (concentration at which cells gathered in the G2/M phase) (K562 [8]): 0.5 µM | % of G2/M (K562 [8]; at the effect concentration): 76.72% | effect μM (concentration at which cells gathered in the G2/M phase) (MCF7 ADR): 0.5 µM | % of G2/M (MCF7 ADR; at the effect concentration): 52.37% | numbers of the cells in the G2/M phase [19]: ≥ 50%
